For 3 compounds, Fold change results are on record in patent publication US20130273196A1, “Pet Food Compositions for Inducing a Satiety Response” (HILL'S PET NUTRITION, INC, priority 2010, published 2013).

Test [1] has as its system NPY1R. Briefly: Affymetrix canine GeneChip gene expression analysis in canine cell lines, NPY1R. It counts as cell-based. The settings on record: in two cell lines tested, amount tested 0.005 mg/mL, 0.025 mg/mL. Here is the method:
Gene expression was analyzed using Affymetrix Canine 1 and Canine 2 GeneChip Arrays available commercially from Affymetrix, Inc., Santa Clara, Calif. 95051. Total RNA is reverse transcribed into cDNA. The cDNA is used to generate cRNA which is fragmented and used as probes for GeneChip hybridization. The gene chip is washed and the hybridization signal is measured with an Affymetrix laser scanner. The hybridization data is then validated and normalized for further analysis.
Materials: Affymetrix provided most of the reagents and kit. Other reagents listed in the Affymetrix Manual but not supplied in the kit were obtained separately. Refer to GeneChip Expression Analysis Technical Manual (701021 Rev. 4) for the details. […]
Affymetrix canine gene chips Canine-1 and Canine-2 are used to determine the effect of various test substances or ingredients on gene expression in four canine cell lines and appropriate controls. […] Gene expression was measured for the treatment cell lines and controls. The gene expression data was determined to be either “up” or “down”-regulated for any given treatment. The decision on whether a gene is “up” or “down” is based on the fold change, which is calculated as treatment intensity/control intensity for each individual probe.

Test [2] deals with NPY5R. Briefly: Affymetrix canine GeneChip gene expression analysis in canine cell lines, NPY5R. It counts as cell-based. How it is done: Gene expression was analyzed using Affymetrix Canine 1 and Canine 2 GeneChip Arrays available commercially from Affymetrix, Inc., Santa Clara, Calif. 95051. Total RNA is reverse transcribed into cDNA. The cDNA is used to generate cRNA which is fragmented and used as probes for GeneChip hybridization. The gene chip is washed and the hybridization signal is measured with an Affymetrix laser scanner. The hybridization data is then validated and normalized for further analysis. Materials: Affymetrix provided most of the reagents and kit. Other reagents listed in the Affymetrix Manual but not supplied in the kit were obtained separately. Refer to GeneChip Expression Analysis Technical Manual (701021 Rev. 4) for the details. Equipment: Eppendorf Microcentrifuge, 1.5 mL DNase and RNase free/sterile microcentrifuge tubes, 50 mL DNase and RNase free/sterile disposable polypropylene tubes, P1000, […] and P2 Rainin Pipetman pipettes, Filter pipette tips for P1000, […] and P2 pipettes, DNase and RNase free/sterile, and Peltier Thermal Cycler PTC-200. Procedure: All procedures followed exactly as described in GeneChip Expression Analysis Technical Manual (Affymetrix Copyright 1999-2003). 5 micrograms of total RNA were used for the first strand cDNA synthesis. Used either Peltier Thermal Cycler PTC-200 or heat block for temperature control on reactions and probe denaturing. The quality control was performed using RNA NanoDrop chips with BioAnalyer 2100. Used 100 Format (Midi Array) for the canine genechip. […] The solvent at the higher of the two concentrations was used as a control. […] Gene expression was measured for the treatment cell lines and controls. The gene expression data was determined to be either “up” or “down”-regulated for any given treatment. The decision on whether a gene is “up” or “down” is based on the fold change, which is calculated as treatment intensity/control intensity for each individual probe.

As for `CC/C=C\C/C=C\C/C=C\C/C=C\C/C=C\CCCC(=O)O` [EPA], the Fold change in test [1] is −1.43 (in two cell lines; in test [2] (in two cell lines tested, amount tested 0.005 mg/mL, 0.025 mg/mL), −1.82 (in two cell lines.
As for `O=C(O[C@@H]1Cc2c(O)cc(O)cc2O[C@@H]1c1cc(O)c(O)c(O)c1)c1cc(O)c(O)c(O)c1` [Epigallocatechin Gallate, epigallocatechin gallate], in test [2] (in all cell lines tested, amount tested 20 ng/mL, 80 ng/mL, fold change = treatment intensity/control intensity), the Fold change is listed as −1.33 (in all cell lines.
Turning to `O=c1cc(-c2ccc(O)c(O)c2)oc2cc(O)cc(O)c12` [Luteolin, luteolin], the Fold change in test [2] (in two cell lines tested, amount tested 1 uM, 10 uM) is 1.56 (in two cell lines tested).
